Reference: patent US10954216B2, “BMP-signal-inhibiting compound” (RIKEN, priority 2016, dated 2021)

These molecules were tested on BMP signal in MDA-231-D-BREFluc/Rluc cells (assay: BMP signal inhibitory effect (AlphaScreen SureFire SMAD1 p-Ser463/465, BMP-6 stimulation)). Details: not given.
Assay type: cell-based
Description: BMP Signal Inhibitory Effect
A BMP signal inhibitory activity of a compound of the present invention was evaluated according to the following method.
MDA-231-D-BREFluc/Rluc cells prepared according to the method described in Y. Katsuno et al., Oncogene, 27, 6322 (2008) were incubated at 37° C. for 2 hours together with test compounds, and BMP-6 (commercially available from R&D System, 507-BM-020) was then added thereto, and the mixture was additionally incubated at 37° C. for 30 minutes. A Lysis Buffer and Acceptor mix of AlphaScreen SureFire SMAD1 (p-Ser463/465) assay kit (commercially available from Perkin Elmer, TGRSM1S10K) were sequentially added thereto, the mixture was incubated at room temperature for 2 hours, and AlphaScreen Protein A kit (commercially available from Perkin Elmer, 6760617) was then added thereto, and standard AlphaScreen settings of Alpha Technology—compatible plate reader (commercially available from Perkin Elmer, EnSpire) was used for measurement.
`CCn1cc(-c2ccnc(Nc3ccc(C(=O)N(C)C4CC5CCC(C4)N5C(C)C)cc3)n2)c(-c2cccnc2)n1` (centres unmarked) [Example 5, 4-((4-(1-Ethyl-3-(pyridin-3-yl)-1H-pyrazol-4-yl)pyrimidin-2-yl)amino)-N-(8-isopropyl-8-azabicyclo[3.2.1]octan-3-yl)-N-methylbenzamide] gave an IC50 of 16.9 nM.

Same assay, conditions: BMP-6 stimulated MDA-231-D-BREFluc/Rluc cells, phospho-SMAD1 AlphaScreen; read-out: IC50
Work on `CCn1cc(-c2ccnc(Nc3ccc(C(=O)N4CCN(C(C)(C)C)CC4)cc3)n2)c(-c2cccnc2)n1` [Example 1, (4-(tert-butyl)piperazin-1-yl)(4-((4-(1-ethyl-3-(pyridin-3-yl)-1H-pyrazol-4-yl)pyrimidin-2-yl)amino)phenyl)methanone] yielded an IC50 of 6.9 nM. Molecule `CCn1cc(-c2ccnc(Nc3ccc(C(=O)N4CCCCC4)cc3)n2)c(-c2cccnc2)n1` [Example 2, (4-((4-(1-ethyl-3-(pyridin-3-yl)-1H-pyrazol-4-yl)pyrimidin-2-yl)amino)phenyl)(piperidin-1-yl)methanone] has an IC50 of 40.7 nM. For `CCn1cc(-c2ccnc(Nc3ccc(C(=O)N(C)C4CCN(C)CC4)cc3)n2)c(-c2cccnc2)n1` [Example 4, 4-((4-(1-ethyl-3-(pyridin-3-yl)-1H-pyrazol-4-yl)pyrimidin-2-yl)amino)-N-methyl-N-(1-methylpiperidin-4-yl)benzamide], the IC50 was 16.3 nM. `CCn1cc(-c2ccnc(Nc3ccc(C(C)=O)cc3)n2)c(-c2cccnc2)n1` [Example 6, 1-(4-((4-(1-Ethyl-3-(pyridin-3-yl)-1H-pyrazol-4-yl)pyrimidin-2-yl)amino)phenyl) ethan-1-one] showed an IC50 of 29.2 nM. `CCn1cc(-c2ccnc(Nc3ccc4c(n3)CCN(C)C4)n2)c(-c2cccnc2)n1` [Example 7, N-(4-(1-ethyl-3-(pyridin-3-yl)-1H-pyrazol-4-yl)pyrimidin-2-yl)-6-methyl-5,6,7,8-tetrahydro-1,6-naphthyridin-2-amine] was tested, and the IC50 was 144 nM. `CN1CCc2cc(Nc3nccc(-c4cn(C5COC5)nc4-c4cccnc4)n3)ccc2C1` [Example 8, 2-methyl-N-(4-(1-(oxetan-3-yl)-3-(pyridin-3-yl)-1H-pyrazol-4-yl)pyrimidin-2-yl)-1,2,3,4-tetrahydroisoquinolin-6-amine] was tested, and the IC50 was 6.8 nM. Work on `CCn1cc(-c2ccnc(Nc3ccc4c(c3)CN(C3COC3)C4)n2)c(-c2cccnc2)n1` [Example 9, N-(4-(1-Ethyl-3-(pyridin-3-yl)-1H-pyrazol-4-yl)pyrimidin-2-yl)-2-(oxetan-3-yl)isoindolin-5-amine] yielded an IC50 of 23.5 nM. In the case of `CN1CCc2cc(Nc3nccc(-c4cn(CC5CCOC5)nc4-c4cccnc4)n3)ccc2C1` (centres unmarked) [Example 10, 2-Methyl-N-(4-(3-(pyridin-3-yl)-1-((tetrahydrofuran-3-yl)methyl)-1H-pyrazol-4-yl)pyrimidin-2-yl)-1,2,3,4-tetrahydroisoquinolin-6-amine], the IC50 is reported as 5.8 nM. `CCn1cc(-c2ccnc(Nc3ccc(C4CCN(C5COC5)CC4)cc3)n2)c(-c2cccnc2)n1` [Example 11, 4-(1-Ethyl-3-(pyridin-3-yl)-1H-pyrazol-4-yl)-N-(4-(1-(oxetan-3-yl)piperidin-4-yl)phenyl)pyrimidin-2-amine] showed an IC50 of 29.4 nM. In the case of `COCCN1CCC(c2ccc(Nc3nccc(-c4cn(C5COC5)nc4-c4cccnc4)n3)cc2)CC1` [Example 12, N-(4-(1-(2-methoxyethyl)piperidin-4-yl)phenyl)-4-(1-(oxetan-3-yl)-3-(pyridin-3-yl)-1H-pyrazol-4-yl)pyrimidin-2-amine], the IC50 is reported as 6.6 nM. `COCCn1cc(-c2ccnc(Nc3ccc(C4CCN(C5COC5)CC4)cc3)n2)c(-c2cccnc2)n1` [Example 13] gave an IC50 of 26.8 nM. Work on `CCn1cc(-c2ccnc(Nc3ccc(-c4cn5ccccc5n4)cc3)n2)c(-c2cccnc2)n1` [Example 14, 4-(1-ethyl-3-(pyridin-3-yl)-1H-pyrazol-4-yl)-N-(4-(imidazo[1,2-a]pyridin-2-yl)phenyl)pyrimidin-2-amine] yielded an IC50 of 36.4 nM. With `CCn1cc(-c2ccnc(Nc3ccc(N4CCN(CCOC)CC4)c(F)c3)n2)c(-c2cccnc2)n1` [Example 18, 4-(1-Ethyl-3-(pyridin-3-yl)-1H-pyrazol-4-yl)-N-(3-fluoro-4-(4-(2-methoxyethyl)piperazin-1-yl)phenyl)pyrimidin-2-amine] the IC50 was 30.8 nM.
